Measured values published in ChEMBL document CHEMBL1153562, “Are all the DNA gyrase mutations found in Mycobacterium leprae clinical strains involved in resistance to fluoroquinolones?” (Antimicrob Agents Chemother, 2008).
In brackets after ≈: the same amount, converted by molar mass. Activity calls are given as the source filed them. The calls are words filed in the database; no cut-off is given here.

Legend:
Mycobacterium leprae [1] = assay: Inhibition of Mycobacterium leprae DNA gyrase subunit A G89C mutant assessed as DNA supercoiling inhibition
[2] = system: Mycobacterium leprae [A91V]; assay: (§1) Inhibition of Mycobacterium […] A A91V mutant assessed as formation of DNA cleavable complex
Mycobacterium leprae [3] = assay: Inhibition of Mycobacterium leprae wild type DNA gyrase A2B2 assessed as formation of DNA cleavable complex
Mycobacterium leprae [4] = assay: Inhibition of Mycobacterium […] B D205N mutant assessed as DNA supercoiling inhibition
Mycobacterium leprae [5] = assay: Inhibition of Mycobacterium leprae DNA gyrase subunit A A91V mutant assessed as DNA supercoiling inhibition
Mycobacterium leprae [6] = assay: Inhibition of Mycobacterium […] B D205N mutant assessed as formation of DNA cleavable complex
Mycobacterium leprae [7] = assay: Inhibition of Mycobacterium leprae wild type DNA gyrase A2B2 assessed as DNA supercoiling inhibition
Mycobacterium leprae [8] = assay: as §1
Mycobacterium leprae [9] = assay: Selectivity index, ratio of CC25 for Mycobacterium leprae DNA gyrase subunit A A91V mutant to CC25 for Mycobacterium leprae wild type DNA gyrase A2B2 by DNA cleavage assay
Mycobacterium leprae [10] = assay: Selectivity index, ratio of IC50 for Mycobacterium leprae DNA gyrase subunit A G89C mutant to IC50 for Mycobacterium leprae wild type DNA gyrase A2B2
Mycobacterium leprae [11] = assay: Selectivity index, ratio of IC50 for Mycobacterium leprae DNA gyrase subunit A A91V mutant to IC50 for Mycobacterium leprae wild type DNA gyrase A2B2

CCn1cc(C(=O)O)c(=O)c2ccc(C)nc21 [NALIDIXIC ACID]
IC50 (Mycobacterium leprae [1]): 150 µg/mL (≈ 646 µM) | CC25 [2]: inactive | CC25 (Mycobacterium leprae [3]): inactive | IC50 (Mycobacterium leprae [4]): 600 µg/mL (≈ 2580 µM) | IC50 (Mycobacterium leprae [5]): 170 µg/mL (≈ 732 µM) | CC25 (Mycobacterium leprae [6]): inactive

CCn1cc(C(=O)O)c(=O)c2cc3c(cc21)OCO3 [OXOLINIC ACID]
IC50 (Mycobacterium leprae [1]): 180 µg/mL (≈ 689 µM) | CC25 [2]: inactive | CC25 (Mycobacterium leprae [3]): inactive | IC50 (Mycobacterium leprae [4]): 700 µg/mL (≈ 2680 µM) | IC50 (Mycobacterium leprae [7]): 400 µg/mL (≈ 1530 µM) | IC50 (Mycobacterium leprae [5]): 200 µg/mL (≈ 766 µM) | CC25 (Mycobacterium leprae [6]): inactive

C[C@H]1NCc2cc(-c3ccc4c(=O)c(C(=O)O)cn(C5CC5)c4c3OC(F)F)ccc21 [GARENOXACIN]
IC50 (Mycobacterium leprae [1]): 5 µg/mL (≈ 11.7 µM) | CC25 (Mycobacterium leprae [8]): 17 µg/mL (≈ 39.9 µM) | CC25 (Mycobacterium leprae [3]): 1 µg/mL (≈ 2.35 µM) | IC50 (Mycobacterium leprae [4]): 16 µg/mL (≈ 37.5 µM) | fold change (FC) (Mycobacterium leprae [9]): 17 | IC50 (Mycobacterium leprae [7]): 6 µg/mL (≈ 14.1 µM) | IC50 (Mycobacterium leprae [5]): 8 µg/mL (≈ 18.8 µM)

CO[C@@H]1[C@@H](OC(N)=O)[C@@H](O)[C@H](Oc2ccc3c(O)c(NC(=O)c4ccc(O)c(CC=C(C)C)c4)c(=O)oc3c2C)OC1(C)C [NOVOBIOCIN]
IC50 (Mycobacterium leprae [1]): 0.3 µg/mL (≈ 0.49 µM) | IC50 (Mycobacterium leprae [4]): 0.3 µg/mL (≈ 0.49 µM) | IC50 (Mycobacterium leprae [7]): 0.25 µg/mL (≈ 0.408 µM) | IC50 (Mycobacterium leprae [5]): 0.2 µg/mL (≈ 0.326 µM)

COc1c(N2C[C@@H]3CCCN[C@@H]3C2)c(F)cc2c(=O)c(C(=O)O)cn(C3CC3)c12 [MOXIFLOXACIN]
IC50 (Mycobacterium leprae [1]): 30 µg/mL (≈ 74.7 µM) | fold change (FC) (Mycobacterium leprae [10]): 3 | IC50 (Mycobacterium leprae [7]): 6 µg/mL (≈ 14.9 µM) | IC50 (Mycobacterium leprae [5]): 25 µg/mL (≈ 62.3 µM) | fold change (FC) (Mycobacterium leprae [11]): 5

COc1c(N2CCNC(C)C2)c(F)cc2c(=O)c(C(=O)O)cn(C3CC3)c12 (stereo unspecified) [GATIFLOXACIN]
IC50 (Mycobacterium leprae [1]): 20 µg/mL (≈ 53.3 µM) | CC25 (Mycobacterium leprae [8]): 4 µg/mL (≈ 10.7 µM) | CC25 (Mycobacterium leprae [3]): 0.3 µg/mL (≈ 0.799 µM) | IC50 (Mycobacterium leprae [4]): 4.5 µg/mL (≈ 12 µM) | fold change (FC) (Mycobacterium leprae [9]): 12 | IC50 (Mycobacterium leprae [7]): 3.5 µg/mL (≈ 9.32 µM) | IC50 (Mycobacterium leprae [5]): 20 µg/mL (≈ 53.3 µM) | fold change (FC) (Mycobacterium leprae [11]): 5

CC1COc2c(N3CCN(C)CC3)c(F)cc3c(=O)c(C(=O)O)cn1c23 (stereo unspecified) [OFLOXACIN]
IC50 (Mycobacterium leprae [1]): 160 µg/mL (≈ 443 µM) | CC25 (Mycobacterium leprae [8]): 110 µg/mL (≈ 304 µM) | CC25 (Mycobacterium leprae [3]): 9 µg/mL (≈ 24.9 µM) | IC50 (Mycobacterium leprae [4]): 20 µg/mL (≈ 55.3 µM) | fold change (FC) (Mycobacterium leprae [9]): 12 | IC50 (Mycobacterium leprae [7]): 15 µg/mL (≈ 41.5 µM) | IC50 (Mycobacterium leprae [5]): 80 µg/mL (≈ 221 µM) | CC25 (Mycobacterium leprae [6]): 8 µg/mL (≈ 22.1 µM) | fold change (FC) (Mycobacterium leprae [11]): 5
